Experimental data: patent US9193733B2, “Piperidinylcyclobutyl substituted pyrrolopyridine and pyrrolopyrimidine derivatives as JAK inhibitors” (Incyte Corporation, priority 2012, dated 2015)

Columns and labels:
Assay type in all cases: biochemical
[1] = test system: human JAK1 (a.a. 837-1142) catalytic domain; assay: In vitro JAK kinase assay (HTRF, phosphorylation of a biotinylated peptide), JAK1; conditions: ratio of JAK2 IC50 to JAK1 IC50, 1 mM ATP
Experimental: (§1) Compounds herein were tested for inhibitory activity of JAK targets according to the following in vitro assay described in Park et al., Analytical Biochemistry 1999, 269, 94-104. The catalytic domains of human JAK1 (a.a. 837-1142) and JAK2 (a.a. 828-1132) with an N-terminal His tag were expressed using baculovirus in insect cells and purified. The catalytic activity of JAK1 and JAK2 was assayed by measuring the phosphorylation of a biotinylated peptide. The phosphorylated peptide was detected by homogenous time resolved fluorescence (HTRF). IC50s of compounds were measured for each kinase in the 40 microL reactions that contain the enzyme, ATP and 500 nM peptide in 50 mM Tris (pH 7.8) buffer with 100 mM NaCl, 5 mM DTT, and 0.1 mg/mL (0.01%) BSA. For the 1 mM IC50 measurements, ATP concentration in the reactions was 1 mM. Reactions were carried out at room temperature for 1 hour and then stopped with 20 μL 45 mM EDTA, 300 nM SA-APC, 6 nM Eu-Py20 in assay buffer (Perkin Elmer, Boston, Mass.). Binding to the Europium labeled antibody took place for 40 minutes and HTRF signal was measured on a Fusion plate reader (Perkin Elmer, Boston, Mass.). See Table A for data related to compounds of the Examples (at 1 mM). Data is indicated as ranges: <20 nM (+), 20 to <150 nM (++), 150 to 500 nM (+++).

[2] = molecular target: T1, human JAK1 (a.a. 837-1142) catalytic domain (Homo sapiens, UniProt P23458); assay: as above; conditions: 1 mM ATP
T1 construct: human JAK1 (a.a. 837-1142) and JAK2 (a.a. 828-1132); His tag (N); made in house; host or cells: insect cells (baculovirus)
Experimental: as §1

[3] = molecular target: T2, human JAK2 (a.a. 828-1132) catalytic domain (Homo sapiens, UniProt O60674); assay: In vitro JAK kinase assay (HTRF, phosphorylation of a biotinylated peptide), JAK2; conditions: 1 mM ATP
T2 construct: human JAK1 (a.a. 837-1142) and JAK2 (a.a. 828-1132); His tag (N); made in house; host or cells: insect cells (baculovirus)
Experimental: as §1

T1 sequence (P23458 849-1154): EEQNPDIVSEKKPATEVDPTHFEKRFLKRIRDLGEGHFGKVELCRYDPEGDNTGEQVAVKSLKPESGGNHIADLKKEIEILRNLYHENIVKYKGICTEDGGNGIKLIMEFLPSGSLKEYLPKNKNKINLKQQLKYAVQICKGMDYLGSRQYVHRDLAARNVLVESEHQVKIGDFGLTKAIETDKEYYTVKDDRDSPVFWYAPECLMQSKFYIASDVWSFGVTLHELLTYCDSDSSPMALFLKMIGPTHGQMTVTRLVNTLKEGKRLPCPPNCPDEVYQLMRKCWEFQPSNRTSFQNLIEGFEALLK
T2 sequence (O60674 828-1132): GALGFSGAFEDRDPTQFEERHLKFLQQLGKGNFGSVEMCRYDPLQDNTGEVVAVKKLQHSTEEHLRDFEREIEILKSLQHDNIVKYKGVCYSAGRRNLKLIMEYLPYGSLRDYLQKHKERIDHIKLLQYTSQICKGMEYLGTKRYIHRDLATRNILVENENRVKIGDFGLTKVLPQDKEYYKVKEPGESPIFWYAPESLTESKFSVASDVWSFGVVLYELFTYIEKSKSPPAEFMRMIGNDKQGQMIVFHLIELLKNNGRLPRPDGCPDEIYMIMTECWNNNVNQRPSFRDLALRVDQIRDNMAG

JAK2/JAK1 [1]	IC50 [2] [nM]	IC50 [3] [nM]	SMILES
>10	< 20	20 to 150	CC1(C)CN(Cc2cc(OC3CCN([C@H]4C[C@](CC#N)(n5cc(-c6ncnc7[nH]ccc67)cn5)C4)CC3)nc(C(F)(F)F)c2)C1 [Example 13, {trans-3-(4-{[4-[(3,3-dimethylazetidin-1-yl)methyl]-6-(trifluoromethyl)pyridin-2-yl]oxy}piperidin-1-yl)-1-[4-(7H-pyrrolo[2,3-d]pyrimidin-4-yl)-1H-pyrazol-1-yl]cyclobutyl}acetonitrile]
>10	< 20	20 to 150	N#CC[C@]1(n2cc(-c3ncnc4[nH]ccc34)cn2)C[C@H](N2CCC(Nc3cc(CN4CCC4)cc(C(F)(F)F)n3)CC2)C1 [Example 39, {trans-3-(4-{[4-(azetidin-1-ylmethyl)-6-(trifluoromethyl)pyridin-2-yl]amino}piperidin-1-yl)-1-[4-(7H-pyrrolo[2,3-d]pyrimidin-4-yl)-1H-pyrazol-1-yl]cyclobutyl}acetonitrile]
>10	< 20	150 to 500	N#CC[C@]1(n2cc(-c3ccnc4[nH]ccc34)cn2)C[C@H](N2CCC(Oc3cc(CNCCO)cc(C(F)(F)F)n3)CC2)C1 [Example 21, {trans-3-(4-{[4-{[(2-hydroxyethyl)amino]methyl}-6-(trifluoromethyl)pyridin-2-yl]oxy}piperidin-1-yl)-1-[4-(1H-pyrrolo[2,3-b]pyridin-4-yl)-1H-pyrazol-1-yl]cyclobutyl}acetonitrile]
>10	< 20	20 to 150	CCNCc1cc(NC2CCN([C@H]3C[C@](CC#N)(n4cc(-c5ncnc6[nH]ccc56)cn4)C3)CC2)nc(C(F)(F)F)n1 [Example 28, {trans-3-(4-{[6-[(ethylamino)methyl]-2-(trifluoromethyl)pyrimidin-4-yl]amino}piperidin-1-yl)-1-[4-(7H-pyrrolo[2,3-d]pyrimidin-4-yl)-1H-pyrazol-1-yl]cyclobutyl}acetonitrile]
>10	< 20	20 to 150	N#CC[C@]1(n2cc(-c3ncnc4[nH]ccc34)cn2)C[C@H](N2CCC(Nc3cc(CO)nc(C(F)(F)F)n3)CC2)C1 [Example 27, {trans-3-(4-{[6-(hydroxymethyl)-2-(trifluoromethyl)pyrimidin-4-yl]amino}piperidin-1-yl)-1-[4-(7H-pyrrolo[2,3-d]pyrimidin-4-yl)-1H-pyrazol-1-yl]cyclobutyl}acetonitrile]
>10	< 20	20 to 150	COCc1cc(NC2CCN([C@H]3C[C@](CC#N)(n4cc(-c5ncnc6[nH]ccc56)cn4)C3)CC2)nc(C(F)(F)F)c1 [Example 45, {trans-3-(4-{[4-(methoxymethyl)-6-(trifluoromethyl)pyridin-2-yl]amino}piperidin-1-yl)-1-[4-(7H-pyrrolo[2,3-d]pyrimidin-4-yl)-1H-pyrazol-1-yl]cyclobutyl}acetonitrile]
>10	< 20	20 to 150	COCCNCc1cc(OC2CCN([C@H]3C[C@](CC#N)(n4cc(-c5ncnc6[nH]ccc56)cn4)C3)CC2)nc(C(F)(F)F)c1 [Example 3, {trans-3-(4-{[4-{[(2-methoxyethyl)amino]methyl}-6-(trifluoromethyl)pyridin-2-yl]oxy}piperidin-1-yl)-1-[4-(7H-pyrrolo[2,3-d]pyrimidin-4-yl)-1H-pyrazol-1-yl]cyclobutyl}acetonitrile]
>10	< 20	20 to 150	C[C@H](CO)NCc1cc(OC2CCN([C@H]3C[C@](CC#N)(n4cc(-c5ncnc6[nH]ccc56)cn4)C3)CC2)nc(C(F)(F)F)c1 [Example 2, {trans-3-(4-{[4-({[(1R)-2-hydroxy-1-methylethyl]amino}methyl)-6-(trifluoromethyl)pyridin-2-yl]oxy}piperidin-1-yl)-1-[4-(7H-pyrrolo[2,3-d]pyrimidin-4-yl)-1H-pyrazol-1-yl]cyclobutyl}acetonitrile]
>10	< 20	20 to 150	N#CC[C@]1(n2cc(-c3ncnc4[nH]ccc34)cn2)C[C@H](N2CCC(Oc3cc(Cn4cncn4)cc(C(F)(F)F)n3)CC2)C1 [Example 23, [trans-1-[4-(7H-pyrrolo[2,3-d]pyrimidin-4-yl)-1H-pyrazol-1-yl]-3-(4-{[4-(1H-1,2,4-triazol-1-ylmethyl)-6-(trifluoromethyl)pyridin-2-yl]oxy}piperidin-1-yl)cyclobutyl]acetonitrile]
>10	< 20	20 to 150	CC1(NCc2cc(OC3CCN([C@H]4C[C@](CC#N)(n5cc(-c6ncnc7[nH]ccc67)cn5)C4)CC3)nc(C(F)(F)F)c2)CC1 [Example 10, {trans-3-(4-{[4-{[(1-methylcyclopropyl)amino]methyl}-6-(trifluoromethyl)pyridin-2-yl]oxy}piperidin-1-yl)-1-[4-(7H-pyrrolo[2,3-d]pyrimidin-4-yl)-1H-pyrazol-1-yl]cyclobutyl}acetonitrile]
>10	< 20	20 to 150	CCNCc1cc(NC2CCN([C@H]3C[C@](CC#N)(n4cc(-c5ncnc6[nH]ccc56)cn4)C3)CC2)nc(C(F)(F)F)c1 [Example 32, {trans-3-(4-{[4-[(ethylamino)methyl]-6-(trifluoromethyl)pyridin-2-yl]amino}piperidin-1-yl)-1-[4-(7H-pyrrolo[2,3-d]pyrimidin-4-yl)-1H-pyrazol-1-yl]cyclobutyl}acetonitrile]
>10	< 20	20 to 150	N#CC[C@]1(n2cc(-c3ncnc4[nH]ccc34)cn2)C[C@H](N2CCC(Oc3cc(CN4CC(C#N)C4)cc(C(F)(F)F)n3)CC2)C1 [Example 4, 1-{[2-[(1-{trans-3-(cyanomethyl)-3-[4-(7H-pyrrolo[2,3-d]pyrimidin-4-yl)-1H-pyrazol-1-yl]cyclobutyl}piperidin-4-yl)oxy]-6-(trifluoromethyl)pyridin-4-yl]methyl}azetidine-3-carbonitrile]
>10	< 20	20 to 150	N#CC[C@]1(n2cc(-c3ncnc4[nH]ccc34)cn2)C[C@H](N2CCC(Oc3cc(Cn4ccnc4)cc(C(F)(F)F)n3)CC2)C1 [Example 22, {trans-3-(4-{[4-(1H-imidazol-1-ylmethyl)-6-(trifluoromethyl)pyridin-2-yl]oxy}piperidin-1-yl)-1-[4-(7H-pyrrolo[2,3-d]pyrimidin-4-yl)-1H-pyrazol-1-yl]cyclobutyl}acetonitrile]
>10	< 20	20 to 150	N#CC[C@]1(n2cc(-c3ncnc4[nH]ccc34)cn2)C[C@H](N2CCC(Nc3cc(CN4CC5(COC5)C4)cc(C(F)(F)F)n3)CC2)C1 [Example 46, {trans-3-(4-{[4-(2-oxa-6-azaspiro[3.3]hept-6-ylmethyl)-6-(trifluoromethyl)pyridin-2-yl]amino}piperidin-1-yl)-1-[4-(7H-pyrrolo[2,3-d]pyrimidin-4-yl)-1H-pyrazol-1-yl]cyclobutyl}acetonitrile]
>10	< 20	150 to 500	N#CC[C@]1(n2cc(-c3ncnc4[nH]ccc34)cn2)C[C@H](N2CCC(Oc3cc(Cn4cccn4)cc(C(F)(F)F)n3)CC2)C1 [Example 25, {trans-3-(4-{[4-(1H-pyrazol-1-ylmethyl)-6-(trifluoromethyl)pyridin-2-yl]oxy}piperidin-1-yl)-1-[4-(7H-pyrrolo[2,3-d]pyrimidin-4-yl)-1H-pyrazol-1-yl]cyclobutyl}acetonitrile]
>10	< 20	20 to 150	N#CC[C@]1(n2cc(-c3ncnc4[nH]ccc34)cn2)C[C@H](N2CCC(Oc3cc(C4(N)COC4)cc(C(F)(F)F)n3)CC2)C1 [Example 50, {trans-3-(4-{[4-(3-aminooxetan-3-yl)-6-(trifluoromethyl)pyridin-2-yl]oxy}piperidin-1-yl)-1-[4-(7H-pyrrolo[2,3-d]pyrimidin-4-yl)-1H-pyrazol-1-yl]cyclobutyl}acetonitrile]
>10	< 20	20 to 150	N#CC[C@]1(n2cc(-c3ncnc4[nH]ccc34)cn2)C[C@H](N2CCC(Oc3cc(CN[C@H]4C[C@H](O)C4)cc(C(F)(F)F)n3)CC2)C1 [Example 12, {trans-3-(4-{[4-{[(trans-3-hydroxycyclobutyl)amino]methyl}-6-(trifluoromethyl)pyridin-2-yl]oxy}piperidin-1-yl)-1-[4-(7H-pyrrolo[2,3-d]pyrimidin-4-yl)-1H-pyrazol-1-yl]cyclobutyl}acetonitrile]
